Experimental data published in PubChem BioAssay AID330 (DTP/NCI, 2004).
Where “and” joins values, the source holds several entries; their conditions need not be identical. Equal values may be shown once. Toxic doses and inconclusive results are not listed. Rule for the calls: active = survival T/C of 150% or more; inactive = T/C below 125% in these data.

Test system: P388 leukemia ip, CD2F1 mice, survival T/C
Experiment: NCI In Vivo Anticancer Drug Screen. Data for tumor model P388 Leukemia (intraperitoneal) in CD2F1 (CDF1) mice
Conditions: endpoint: median survival time, higher = longer survival
Outline: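 Mice carrying the transplanted tumor received test compound or vehicle. Survival was recorded in each group, and the value is the treated-group measurement divided by that of the vehicle-treated control group.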

[1] = dose: 100.0 mg/kg/injection, schedule: Q04DX003 (ip), vehicle: saline
[2] = dose: 200.0 mg/kg/injection, schedule: Q04DX003 (ip), vehicle: saline
[3] = dose: 12.5 mg/kg/injection, schedule: Q01DX009 (ip), vehicle: saline with Tween-80
[4] = dose: 25.0 mg/kg/injection, schedule: Q01DX009 (ip), vehicle: saline with Tween-80
[5] = dose: 50.0 mg/kg/injection, schedule: Q01DX009 (ip), vehicle: saline with Tween-80
[6] = dose: 60.0 mg/kg/injection, schedule: Q01DX005 (ip), vehicle: saline with Tween-80
[7] = dose: 240.0 mg/kg/injection, schedule: Q01DX005 (ip), vehicle: saline with Tween-80

Measured: T/C

C#CC(C(O)c1ccccc1)N1CCOCC1 (configuration not stated)
inactive: [1] 104 % of control | [2] 102 % of control | dose: 400.0 mg/kg/injection, schedule: Q04DX003 (ip), vehicle: saline 101 % of control

Cc1ccc2[nH]c3nc4cc(C)c(C)cc4nc3c2c1
inactive: dose: 6.25 mg/kg/injection, schedule: Q01DX005 (ip), vehicle: saline with Tween-80 93 % of control | dose: 12.5 mg/kg/injection, schedule: Q01DX005 (ip), vehicle: saline with Tween-80 93 % of control | dose: 25.0 mg/kg/injection, schedule: Q01DX005 (ip), vehicle: saline with Tween-80 87 % of control | dose: 50.0 mg/kg/injection, schedule: Q01DX005 (ip), vehicle: saline with Tween-80 96 % of control | dose: 100.0 mg/kg/injection, schedule: Q01DX005 (ip), vehicle: saline with Tween-80 105 % of control | dose: 200.0 mg/kg/injection, schedule: Q01DX005 (ip), vehicle: saline with Tween-80 108 % of control

C(=N\N1CN(/N=C/c2ccccc2)C(c2ccccc2)C1c1ccccc1)/c1ccccc1 (configuration not stated)
inactive: dose: 12.5 mg/kg/injection, schedule: Q01DX005 (ip), vehicle: Klucel (hydroxypropylcellulose) (HPC) 89 % of control | dose: 25.0 mg/kg/injection, schedule: Q01DX005 (ip), vehicle: Klucel (hydroxypropylcellulose) (HPC) 99 % of control | dose: 50.0 mg/kg/injection, schedule: Q01DX005 (ip), vehicle: Klucel (hydroxypropylcellulose) (HPC) 99 % of control and 97 % of control | dose: 100.0 mg/kg/injection, schedule: Q01DX005 (ip), vehicle: Klucel (hydroxypropylcellulose) (HPC) 99 % of control | dose: 200.0 mg/kg/injection, schedule: Q01DX005 (ip), vehicle: Klucel (hydroxypropylcellulose) (HPC) 108 % of control

CCC(O)C(C[N+](=O)[O-])C(=O)OC (configuration not stated)
inactive: dose: 50.0 mg/kg/injection, schedule: Q01DX005 (ip), vehicle: saline 109 % of control | dose: 100.0 mg/kg/injection, schedule: Q01DX005 (ip), vehicle: saline 107 % of control | dose: 200.0 mg/kg/injection, schedule: Q01DX005 (ip), vehicle: saline 102 % of control

N#Cc1ncc(C[P+](c2ccccc2)(c2ccccc2)c2ccccc2)nc1N
inactive: [3] 91 % of control | [4] 94 % of control | [5] 95 % of control

O=S(=O)(Nc1ncccn1)c1ccc(NCc2c3ccccc3nc3cc(Cl)ccc23)cc1
inactive: [6] 87 % of control | dose: 120.0 mg/kg/injection, schedule: Q01DX005 (ip), vehicle: saline with Tween-80 86 % of control | [7] 91 % of control

COc1ccc(C2N(C)CCCN2C)c(OC)c1
inactive: dose: 6.25 mg/kg/injection, schedule: Q01DX009 (ip), vehicle: saline sonified 100 % of control | dose: 12.5 mg/kg/injection, schedule: Q01DX009 (ip), vehicle: saline sonified 105 % of control | dose: 25.0 mg/kg/injection, schedule: Q01DX009 (ip), vehicle: saline sonified 100 % of control

NC(=S)N/N=C/c1ccc(OC(=O)COc2ccc(Cl)cc2)cn1
active: dose: 6.25 mg/kg/injection, schedule: Q01DX009 (ip), vehicle: saline with Tween-80 159 % of control | [3] 156 % of control and 157 % of control | [4] 184 % of control | [5] 188 % of control and 189 % of control
inactive: dose: 3.12 mg/kg/injection, schedule: Q01DX009 (ip), vehicle: saline with Tween-80 118 % of control | dose: 200.0 mg/kg/injection, schedule: Q01DX009 (ip), vehicle: saline with Tween-80 86 % of control
225 % of control and 88 % of control: dose: 100.0 mg/kg/injection, schedule: Q01DX009 (ip), vehicle: saline with Tween-80

COc1cc2c(cc1O)C1CC(CC3CCCCN31)OC(=O)/C=C\c1ccc(O)c-2c1 (configuration not stated)
inactive: dose: 25.0 mg/kg/injection, schedule: Q04DX003 (ip), vehicle: saline 100 % of control | dose: 50.0 mg/kg/injection, schedule: Q04DX003 (ip), vehicle: saline 107 % of control and 109 % of control | [1] 102 % of control and 110 % of control and 121 % of control | [2] 100 % of control and 102 % of control and 105 % of control

C=C(C)C(=O)O[C@H]1[C@H]2[C@H](OC(=O)[C@H]2C)[C@H](O)[C@@H](C)[C@@H]2C=CC(=O)[C@]21C
inactive: dose: 7.5 mg/kg/injection, schedule: Q01DX009 (ip), vehicle: saline with Tween-80 118 % of control | dose: 15.0 mg/kg/injection, schedule: Q01DX009 (ip), vehicle: saline with Tween-80 113 % of control | dose: 30.0 mg/kg/injection, schedule: Q01DX009 (ip), vehicle: saline with Tween-80 124 % of control

FC(F)(F)c1ccc2nc3c4ccccc4c4ccccc4c3nc2c1
inactive: dose: 50.0 mg/kg/injection, schedule: Q01DX009 (ip), vehicle: saline 116 % of control | dose: 100.0 mg/kg/injection, schedule: Q01DX009 (ip), vehicle: saline 107 % of control | dose: 200.0 mg/kg/injection, schedule: Q01DX009 (ip), vehicle: saline 101 % of control

CN(C)c1cccc2c(S(=O)(=O)NCCCCCCCCCCCCNS(=O)(=O)c3cccc4c(N(C)C)cccc34)cccc12
inactive: dose: 15.0 mg/kg/injection, schedule: Q01DX005 (ip), vehicle: saline with Tween-80 96 % of control | dose: 30.0 mg/kg/injection, schedule: Q01DX005 (ip), vehicle: saline with Tween-80 92 % of control | [6] 87 % of control | [7] 88 % of control
